Source: patent US9605003B2, “Heterocyclic compounds and uses thereof” (Infinity Pharmaceuticals, Inc., priority 2011, dated 2017)

Tests used:
[1] = target: T1, PI3Kα (Homo sapiens, UniProt P42336); assay: PI3 Kinase HTRF assay, PI3Kα; type: biochemical; details: Between 1 μM and 10 μM; read-out: PI3K α IC50
T1 construct: purchased Millipore Corporation 14-602-K
Excerpt: (§1) A PI3-Kinase HTRF® assay kit (cat No. 33-016) purchased from Millipore Corporation was used to screen compounds provided herein. This assay used specific, high affinity binding of the GRP1 pleckstrin homology (PH) domain to PIP3, the product of a Class 1A or 1B PI3 Kinase acting on its physiological substrate PIP2. During the detection phase of the assay, a complex was generated between the GST-tagged PH domain and biotinylated short chain PIP3. The biotinylated PIP3 and the GST-tagged PH domain recruited fluorophores (Streptavidin-Allophycocyanin and Europium-labeled anti-GST respectively) to form the fluorescence resonance energy transfer (FRET) architecture, generating a stable time-resolved FRET signal. The FRET complex was disrupted in a competitive manner by non-biotinylated PIP3, a product formed in the PI3 Kinase assay.
(§2) PI3 Kinase α, β, γ and δ activity was assayed using the PI3 Kinase HTRF® assay kit (catalogue No. 33-016) purchased from Millipore Corporation. Purified recombinant PI3Kα (catalogue No. 14-602-K), PI3Kβ (catalogue No. 14-603-K), PI3Kγ (catalogue No. 14-558-K) and PI3Kδ (catalogue No. 14-604-K) were obtained from Millipore Corporation. Purified recombinant PI3K enzyme was used to catalyze the phosphorylation of phosphatidylinositol 4,5-bisphosphate (PIP2 at 10 μM) to phosphatidylinositol 3,4,5-trisphosphate (PIP3) in the presence of 10 μM ATP. The assay was carried out in 384-well format and detected using a Perkin Elmer EnVision Xcite Multilabel Reader. Emission ratios were converted into percent inhibitions and imported into GraphPad Prism software. The concentration necessary to achieve inhibition of enzyme activity by 50% (IC50) was calculated using concentrations ranging from 20 μM to 0.1 nM (12-point curve). IC50 values were determined using a nonlinear regression model available in GraphPad Prism 5.

[2] = target: T2, PI3Kβ (Homo sapiens, UniProt P42338); assay: PI3 Kinase HTRF assay, PI3Kβ; type: biochemical; details: Between 1 μM and 10 μM; read-out: PI3K β IC50
T2 construct: purchased Millipore Corporation 14-603-K
Excerpt: as §1, §2

[3] = tested on: Balb/c splenic B cells; assay: B cell activation and proliferation assay (Alamar Blue); type: cell-based; details: Mus musculus
Description: The ability of one or more subject compounds to inhibit B cell activitation and proliferation is determined according to standard procedures known in the art. For example, an in vitro cellular proliferation assay is established that measures the metabolic activity of live cells. The assay is performed in a 96 well microtiter plate using Alamar Blue reduction. Balb/c splenic B cells are purified over a Ficoll-Paque™ PLUS gradient followed by magnetic cell separation using a MACS B cell Isolation Kit (Miletenyi). Cells are plated in 90 μl at 50,000 cells/well in B Cell Media (RPMI+10% FBS+Penn/Strep+50 μM bME+5 mM HEPES). A compound provided herein is diluted in B Cell Media and added in a 10 μl volume. Plates are incubated for 30 min at 37° C. and 5% CO2 (0.2% DMSO final concentration). A 50 μl B cell stimulation cocktail is then added containing either 10 μg/ml LPS or 5 μg/ml F(ab′)2 Donkey anti-mouse IgM plus 2 ng/ml recombinant mouse IL4 in B Cell Media. Plates are incubated for 72 hours at 37° C. and 5% CO2. A volume of 15 μL of Alamar Blue reagent is added to each well and plates are incubated for 5 hours at 37° C. and 5% CO2. Alamar Blue fluoresce is read at 560Ex/590Em, and IC50 or EC50 values are calculated using GraphPad Prism 5.

[4] = target: T3, PI3Kγ (Homo sapiens, UniProt P48736); assay: PI3 Kinase HTRF assay, PI3Kγ; type: biochemical; details: Between 1 μM and 10 μM; read-out: PI3K γ IC50
T3 construct: purchased Millipore Corporation 14-558-K
Excerpt: as §1, §2

[5] = tested on: phospho-AKT in RAW 264.7 cells; assay: PI3Kγ selective cellular assay, phospho-AKT in C5a stimulated RAW 264.7 cells; type: cell-based; details: Mus musculus, RAW264.7, RAW 264.7 cell model
Excerpt: A compound's ability in selectively inhibiting PI3Kγ can be assessed using RAW264.7 macrophages. Briefly, serum-starved PAW264.7 cells are stimulated with a known GPCR agonist C5a. (See, e.g., Camps et al., Nature Medicine (2005) 11(9): 936-943). Cells can be treated with test compounds prior to, simultaneously with, or subsequent to the stimulation by C5a. RAW 264.7 cells respond to the complement component fragment C5a through activation of the C5a receptor, and the C5a receptor activates macrophages and induces cell migration. Test compounds' ability to inhibit C5a-mediated AKT phosphorylation is indicative of selective inhibition of PI3Kγ. Thus, by monitoring the reduction of phospho-AKT in stimulated RAW 264.7 cells (using for example, phospho-AKT antibodies), a compound's potential efficacy in selectively inhibiting PI3Kγ can be assessed.
Certain compounds provided herein (e.g., Compounds 5, 38, 103, 105, 106, 107, 108, and 109) were tested in RAW 264.7 cell model using procedures as described above.

[6] = tested on: phospho-AKT in RAJI cells; assay: PI3Kδ selective cellular assay, phospho-AKT in anti-IgM stimulated RAJI cells; type: cell-based; details: Homo sapiens; RAJI cell model
Excerpt: A compound's ability in selectively inhibiting PI3Kδ can be assessed using RAJI cells, i.e., B lymphocyte cells derived from lymphoma patients. Briefly, serum-starved RAJI cells are stimulated with anti-human IgM, thereby causing signaling through the B-cell receptors, as described in, for example, He et al., Leukemia Research (2009) 33: 798-802. B-cell receptor signaling is important for the activation, differentiation, and survival of B cells and certain B-cell derived cancers. Reduction of phospho-AKT is indicative of compounds that may inhibit B-cell proliferation and function in certain diseases. By monitoring the reduction of phospho-AKT in stimulated RAJI cells (using for example, phospho-AKT antibodies), a compound's potential efficacy in selectively inhibiting PI3Kδ can be assessed.
Certain compounds provided herein (e.g., Compounds 5, 38, 103, 105, 106, 107, 108, and 109) were tested in RAJI cell model using procedures as described above.

[7] = range between 100 nM and 1 μM (bounds carry own units)

T2 sequence (P42338 whole entry): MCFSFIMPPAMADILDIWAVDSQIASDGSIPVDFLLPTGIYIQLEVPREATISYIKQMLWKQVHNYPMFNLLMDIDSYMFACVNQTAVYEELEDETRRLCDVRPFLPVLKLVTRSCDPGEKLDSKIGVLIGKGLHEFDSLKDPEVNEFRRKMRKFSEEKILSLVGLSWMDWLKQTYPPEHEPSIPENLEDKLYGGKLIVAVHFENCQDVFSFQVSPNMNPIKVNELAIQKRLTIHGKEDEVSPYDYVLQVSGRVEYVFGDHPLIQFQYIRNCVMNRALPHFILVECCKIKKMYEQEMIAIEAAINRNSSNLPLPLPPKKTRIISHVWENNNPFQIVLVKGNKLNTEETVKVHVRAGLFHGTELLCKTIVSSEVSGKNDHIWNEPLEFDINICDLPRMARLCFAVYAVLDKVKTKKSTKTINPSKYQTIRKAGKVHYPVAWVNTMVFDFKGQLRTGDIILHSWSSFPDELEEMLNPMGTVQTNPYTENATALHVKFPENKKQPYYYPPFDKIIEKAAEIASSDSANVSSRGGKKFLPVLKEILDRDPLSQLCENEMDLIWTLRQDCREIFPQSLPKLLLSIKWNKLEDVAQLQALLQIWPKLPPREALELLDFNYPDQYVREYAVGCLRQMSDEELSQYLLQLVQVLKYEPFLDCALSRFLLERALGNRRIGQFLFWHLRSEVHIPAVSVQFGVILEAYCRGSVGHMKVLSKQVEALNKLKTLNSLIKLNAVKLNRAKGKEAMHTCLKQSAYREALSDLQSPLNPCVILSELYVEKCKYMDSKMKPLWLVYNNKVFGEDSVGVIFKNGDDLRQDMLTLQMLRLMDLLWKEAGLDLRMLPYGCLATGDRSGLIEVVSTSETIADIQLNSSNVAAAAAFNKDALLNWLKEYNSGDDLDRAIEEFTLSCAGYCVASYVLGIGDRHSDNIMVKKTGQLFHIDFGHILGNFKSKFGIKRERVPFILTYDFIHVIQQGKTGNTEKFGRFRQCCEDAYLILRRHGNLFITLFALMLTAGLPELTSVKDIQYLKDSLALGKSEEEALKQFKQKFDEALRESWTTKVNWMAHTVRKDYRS
T2 sequence (P27986 2-724 partner limits assumed): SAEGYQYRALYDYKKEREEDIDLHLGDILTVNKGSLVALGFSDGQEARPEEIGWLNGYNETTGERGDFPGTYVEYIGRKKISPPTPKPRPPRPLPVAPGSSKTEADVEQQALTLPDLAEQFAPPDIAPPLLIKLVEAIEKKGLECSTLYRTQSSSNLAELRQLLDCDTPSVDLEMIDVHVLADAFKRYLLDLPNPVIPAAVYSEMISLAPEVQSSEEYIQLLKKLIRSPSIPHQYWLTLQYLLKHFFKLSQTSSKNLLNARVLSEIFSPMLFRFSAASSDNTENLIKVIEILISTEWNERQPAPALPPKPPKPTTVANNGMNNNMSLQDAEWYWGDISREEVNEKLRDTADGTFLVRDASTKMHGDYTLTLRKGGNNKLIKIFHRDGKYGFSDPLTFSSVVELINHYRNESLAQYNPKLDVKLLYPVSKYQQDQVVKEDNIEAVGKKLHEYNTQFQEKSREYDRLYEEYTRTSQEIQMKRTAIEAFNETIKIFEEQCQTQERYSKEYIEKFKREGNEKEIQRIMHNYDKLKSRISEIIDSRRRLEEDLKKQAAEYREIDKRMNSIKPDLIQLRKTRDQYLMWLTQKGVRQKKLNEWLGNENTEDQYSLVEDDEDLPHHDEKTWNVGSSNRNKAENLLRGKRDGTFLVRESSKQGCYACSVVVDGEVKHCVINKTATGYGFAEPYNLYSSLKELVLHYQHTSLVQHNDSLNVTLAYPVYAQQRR
T3 sequence (P48736 whole entry): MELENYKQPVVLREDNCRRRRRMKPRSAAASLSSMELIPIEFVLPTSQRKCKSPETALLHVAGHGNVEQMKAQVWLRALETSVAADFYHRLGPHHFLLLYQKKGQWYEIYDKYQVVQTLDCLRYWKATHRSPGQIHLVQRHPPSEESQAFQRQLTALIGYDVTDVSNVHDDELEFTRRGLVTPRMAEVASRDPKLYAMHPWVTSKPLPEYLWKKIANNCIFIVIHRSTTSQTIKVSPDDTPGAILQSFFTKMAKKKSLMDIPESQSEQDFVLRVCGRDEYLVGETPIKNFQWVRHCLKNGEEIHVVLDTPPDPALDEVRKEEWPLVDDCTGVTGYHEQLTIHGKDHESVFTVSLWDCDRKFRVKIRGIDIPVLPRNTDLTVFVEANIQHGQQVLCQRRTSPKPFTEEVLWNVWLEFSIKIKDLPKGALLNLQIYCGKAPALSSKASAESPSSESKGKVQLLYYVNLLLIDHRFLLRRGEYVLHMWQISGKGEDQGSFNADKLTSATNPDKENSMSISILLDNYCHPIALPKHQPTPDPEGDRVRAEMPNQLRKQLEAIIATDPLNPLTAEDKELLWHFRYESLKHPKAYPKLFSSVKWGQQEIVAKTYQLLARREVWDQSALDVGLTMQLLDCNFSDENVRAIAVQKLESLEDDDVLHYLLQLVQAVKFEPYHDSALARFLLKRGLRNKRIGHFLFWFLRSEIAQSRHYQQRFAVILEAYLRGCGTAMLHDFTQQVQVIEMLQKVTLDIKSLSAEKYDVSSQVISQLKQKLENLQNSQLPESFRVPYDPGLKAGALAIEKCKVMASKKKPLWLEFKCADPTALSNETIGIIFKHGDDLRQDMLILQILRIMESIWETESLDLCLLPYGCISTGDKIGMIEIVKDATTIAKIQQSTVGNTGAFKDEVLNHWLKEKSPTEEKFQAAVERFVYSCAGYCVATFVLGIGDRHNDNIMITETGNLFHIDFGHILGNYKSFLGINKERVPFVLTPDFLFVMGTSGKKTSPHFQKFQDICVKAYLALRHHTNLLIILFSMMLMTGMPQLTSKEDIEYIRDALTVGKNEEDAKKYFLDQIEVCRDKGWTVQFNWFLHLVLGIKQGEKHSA
T1 sequence (P42336 whole entry): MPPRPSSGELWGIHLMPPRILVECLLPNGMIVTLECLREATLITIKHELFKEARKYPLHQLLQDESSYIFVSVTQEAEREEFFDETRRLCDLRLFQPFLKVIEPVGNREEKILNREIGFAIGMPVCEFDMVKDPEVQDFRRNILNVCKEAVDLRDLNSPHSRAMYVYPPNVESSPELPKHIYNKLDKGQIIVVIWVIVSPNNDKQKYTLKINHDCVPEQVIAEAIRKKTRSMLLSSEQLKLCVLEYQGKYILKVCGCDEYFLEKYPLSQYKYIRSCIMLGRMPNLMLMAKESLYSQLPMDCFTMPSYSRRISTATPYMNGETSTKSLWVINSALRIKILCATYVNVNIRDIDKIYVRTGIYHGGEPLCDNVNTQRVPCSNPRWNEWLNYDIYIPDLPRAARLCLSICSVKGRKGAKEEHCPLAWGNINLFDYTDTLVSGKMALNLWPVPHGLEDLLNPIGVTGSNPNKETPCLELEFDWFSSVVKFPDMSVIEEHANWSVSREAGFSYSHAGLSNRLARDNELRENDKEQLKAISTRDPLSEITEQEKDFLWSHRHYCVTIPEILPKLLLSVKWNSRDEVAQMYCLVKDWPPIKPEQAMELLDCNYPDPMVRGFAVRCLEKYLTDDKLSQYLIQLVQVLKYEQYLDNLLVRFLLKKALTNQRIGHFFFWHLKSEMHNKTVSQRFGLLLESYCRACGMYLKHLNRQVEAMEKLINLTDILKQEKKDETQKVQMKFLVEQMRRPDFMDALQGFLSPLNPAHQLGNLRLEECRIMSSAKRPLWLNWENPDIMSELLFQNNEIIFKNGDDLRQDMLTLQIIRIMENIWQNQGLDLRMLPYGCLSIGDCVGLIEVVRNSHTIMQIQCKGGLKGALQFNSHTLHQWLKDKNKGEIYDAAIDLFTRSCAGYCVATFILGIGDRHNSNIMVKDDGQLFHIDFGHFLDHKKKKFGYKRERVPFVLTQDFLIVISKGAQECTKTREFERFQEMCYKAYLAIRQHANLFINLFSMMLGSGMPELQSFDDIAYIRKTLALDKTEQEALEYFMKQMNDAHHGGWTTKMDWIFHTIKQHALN
T1 sequence (P27986 whole entry partner): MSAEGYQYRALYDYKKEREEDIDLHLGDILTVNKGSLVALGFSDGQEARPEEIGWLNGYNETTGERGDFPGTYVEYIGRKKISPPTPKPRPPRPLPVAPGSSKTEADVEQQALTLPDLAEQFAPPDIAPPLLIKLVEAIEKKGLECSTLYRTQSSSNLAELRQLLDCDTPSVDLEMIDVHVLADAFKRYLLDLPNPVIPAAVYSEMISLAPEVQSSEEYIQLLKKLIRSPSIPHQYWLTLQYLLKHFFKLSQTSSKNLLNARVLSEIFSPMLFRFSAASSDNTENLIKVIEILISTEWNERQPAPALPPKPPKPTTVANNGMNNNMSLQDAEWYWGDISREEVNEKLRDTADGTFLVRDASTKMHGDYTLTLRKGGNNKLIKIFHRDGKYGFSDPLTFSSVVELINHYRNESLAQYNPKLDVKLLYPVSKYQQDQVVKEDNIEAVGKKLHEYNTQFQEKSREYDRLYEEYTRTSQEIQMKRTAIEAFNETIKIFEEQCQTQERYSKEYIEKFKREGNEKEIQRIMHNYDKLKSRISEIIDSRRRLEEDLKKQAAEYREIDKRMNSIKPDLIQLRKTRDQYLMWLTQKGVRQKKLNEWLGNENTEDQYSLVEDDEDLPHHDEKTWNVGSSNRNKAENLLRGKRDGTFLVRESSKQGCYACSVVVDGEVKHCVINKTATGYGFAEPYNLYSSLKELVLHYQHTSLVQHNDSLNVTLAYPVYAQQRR

SMILES	IC50 [1] [µM]	IC50 [2] [µM]	EC50 ([3]; Less than 100 nanoMolar) [µM]	other results
Cc1ccc(-c2cccc3cc([C@H](C)Nc4ncnc5scnc45)n(-c4ccccc4)c(=O)c23)cn1 [Compound 6]	1 to 10	1 to 10	< 0.1	–
C[C@H](Nc1ncnc2scnc12)c1cc2cccc(-c3cnn(C)c3)c2c(=O)n1-c1cccc(F)c1 [Compound 10]	1 to 10	1 to 10	< 0.1	–
C[C@H](Nc1ncnc2scnc12)c1cc2cccc(-c3cncc(F)c3)c2c(=O)n1-c1ccccc1 [Compound 21]	1 to 10	–	< 0.1	–
C[C@H](Nc1ncnc2scnc12)c1cc2cccc(-c3ccc(F)c(F)c3)c2c(=O)n1-c1ccccc1 [Compound 22]	1 to 10	–	< 0.1	–
Cc1c(-c2cccc3cc([C@H](C)Nc4ncnc5scnc45)n(-c4ccccc4)c(=O)c23)cnn1C [Compound 43]	1 to 10	1 to 10	< 0.1	–
COc1ccc(-c2cccc3cc([C@H](C)Nc4ncnc5scnc45)n(-c4ccccc4)c(=O)c23)cc1 [Compound 44]	1 to 10	1 to 10	< 0.1	–
C[C@H](Nc1ncnc2scnc12)c1cc2cccc(-c3ccc(N(C)C)nc3)c2c(=O)n1-c1ccccc1 [Compound 47]	1 to 10	–	< 0.1	–
C[C@H](Nc1ncnc2scnc12)c1cc2cccc(-c3cnn(CCN4CCOCC4)c3)c2c(=O)n1-c1ccccc1 [Compound 48]	1 to 10	–	< 0.1	–
C[C@H](Nc1ncnc2scnc12)c1cc2cccc(/C=C/c3ccccc3)c2c(=O)n1-c1ccccc1 [Compound 49]	1 to 10	1 to 10	–	EC50 ([3]; Between 100 nM and 1 μM): 0.1 to 1 µM
C[C@H](Nc1ncnc2scnc12)c1cc2cccc(-c3cnc(OCc4ccccc4)nc3)c2c(=O)n1-c1ccccc1 [Compound 53]	1 to 10	1 to 10	< 0.1	–
COc1ncc(-c2cccc3cc([C@H](C)Nc4ncnc5scnc45)n(-c4ccccc4)c(=O)c23)cc1C [Compound 56]	1 to 10	1 to 10	< 0.1	–
COc1ncc(-c2cccc3cc([C@H](C)Nc4ncnc5scnc45)n(-c4ccccc4)c(=O)c23)cc1C(F)(F)F [Compound 58]	1 to 10	1 to 10	< 0.1	–
COc1ncc(-c2cccc3cc([C@H](C)Nc4ncnc5scnc45)n(-c4cccc(F)c4)c(=O)c23)cn1 [Compound 60]	1 to 10	–	< 0.1	–
COc1ncc(-c2cccc3cc([C@H](C)Nc4ncnc5scnc45)n(C4CC4)c(=O)c23)cn1 [Compound 61]	1 to 10	1 to 10	< 0.1	–
Cc1ncc(-c2cccc3cc([C@H](C)Nc4ncnc5scnc45)n(C4CC4)c(=O)c23)cn1 [Compound 62]	1 to 10	1 to 10	< 0.1	–
C[C@H](Nc1ncnc2scnc12)c1cc2cccc(Cl)c2c(=O)n1C [Compound 81]	1 to 10	–	< 0.1	–
C[C@H](Nc1ncnc2scnc12)c1cc2cccc(C=O)c2c(=O)n1-c1ccccc1 [Compound 83]	1 to 10	–	< 0.1	–
C[C@H](Nc1ncnc2scnc12)c1cc2cccc(C(=O)N3CCOCC3)c2c(=O)n1-c1ccccc1 [Compound 86]	–	–	–	IC50 [4]: 1 to 10 µM
COc1ncc(-c2cccc3cc([C@H](C)Nc4ccnc5scnc45)n(-c4ccccc4)c(=O)c23)cn1 [Compound 89]	1 to 10	–	< 0.1	–
C[C@H](Nc1ccnc2scnc12)c1cc2cccc(Cl)c2c(=O)n1-c1cccc(F)c1 [Compound 90]	1 to 10	–	< 0.1	–
C[C@H](Nc1ncnc2scnc12)c1cc2cccc(-c3ccnnc3)c2c(=O)n1-c1ccccc1 [Compound 92]	1 to 10	–	< 0.1	–
CCCCc1cccc2cc([C@H](C)Nc3ncnc4scnc34)n(-c3ccccc3)c(=O)c12 [Compound 96]	1 to 10	1 to 10	< 0.1	–
Cc1sc2ncnc(N[C@@H](C)c3cc4cccc(Cl)c4c(=O)n3-c3ccccc3)c2c1C [Compound 97]	–	–	–	EC50 ([3]; Between 1 μM and 10 μM): 1 to 10 µM; IC50 [4]: 1 to 10 µM
C[C@H](Nc1ncnc2scc(-c3ccccc3)c12)c1cc2cccc(Cl)c2c(=O)n1-c1ccccc1 [Compound 98]	–	–	–	IC50 [4]: 1 to 10 µM
Cc1cccc2cc([C@H](C)Nc3ncnc4scnc34)n(-c3cccc(F)c3)c(=O)c12 [Compound 100]	1 to 10	–	< 0.1	–
C[C@H](Nc1ncnc2scnc12)c1cc2cccc(Cl)c2c(=O)n1-c1ccon1 [Compound 105]	–	–	–	IC50 [5, 7]: 0.1 to 1 µM; IC50 [6]: < 0.1 µM
Cc1ncc(-c2cccc3cc([C@H](C)Nc4ncnc5scnc45)n(-c4ccon4)c(=O)c23)cn1 [Compound 107]	–	–	–	IC50 [5, 7]: 0.1 to 1 µM; IC50 [6]: < 0.1 µM
CC(C)n1c([C@H](C)Nc2ncnc3scnc23)cc2cccc(-c3ccnnc3)c2c1=O [Compound 108]	–	–	–	IC50 [5]: 1 to 10 µM; IC50 [6]: < 0.1 µM
C[C@H](Nc1ncnc2scnc12)c1cc2cccc(-c3cncc(N)c3)c2c(=O)n1-c1ccccc1 [Compound 109]	1 to 10	–	–	IC50 [5, 7]: 0.1 to 1 µM; IC50 [6]: < 0.1 µM
